Here are results for 3 compounds from patent US20260262643A1, “HERBICIDAL BENZOXAZINES” (FMC CORPORATION, priority 2022, published 2026).

Read-outs that look alike come from different tables or passages of the source.

In test [1] the test system is goosegrass. As to the kind of experiment: Test A preemergence. The test is classed as in vivo, Eleusine indica. To be noted: Eleusine indica, pre-emergence, 240 h, read-out: Plant response rating, Goosegrass; for pest or weed control at 125 g/ha: 125 g ai/ha; for pest or weed control at 500 g/ha: 500 g ai/ha. Put shortly:
(§1)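 Weeds and crops in loam–sand blend were sprayed preemergence onto soil or postemergence at 2–10 cm (one- to two-leaf stage). Test chemicals were in a non-phytotoxic solvent with surfactant. After 10 days in the greenhouse, injury was rated visually against untreated controls on a 0 (no effect) to 100 (complete control) scale.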

Test [2] concerns kochia. As to the kind of experiment: Test A postemergence. Particulars: Bassia scoparia, post-emergence, 240 h, postemergence, 10 days, 0 to 100 scale (0 no effect, 100 complete control); for pest or weed control at 125 g/ha: 125 g ai/ha; for pest or weed control at 500 g/ha: 500 g ai/ha. The test is classed as in vivo, Bassia scoparia. The method in brief: as §1
Test [3] deals with pigweed, palmer. As to the kind of experiment: Test A postemergence. Type of test: in vivo, Amaranthus palmeri. Particulars: Amaranthus palmeri, post-emergence, 240 h, postemergence, 10 days, 0 to 100 scale (0 no effect, 100 complete control); for pest or weed control at 500 g/ha: 500 g ai/ha, visual injury, read-out: Plant response rating, Pigweed, Palmer; for pest or weed control at 125 g/ha: 125 g ai/ha, read-out: Pigweed, Palmer plant response rating. Put shortly: as §1

In test [4] the test system is ryegrass, Italian. Kind of test: Test A preemergence. Type of test: in vivo, Lolium multiflorum. Particulars: Lolium multiflorum, pre-emergence, 240 h, read-out: Plant response rating, Ryegrass, Italian; for pest or weed control at 125 g/ha: 125 g ai/ha; for pest or weed control at 500 g/ha: 500 g ai/ha. The method in brief:
as §1

Test [5] concerns rice. Kind of test: Test B flooded paddy test. Type of test: in vivo, Oryza sativa. To be noted: Oryza sativa, 312 h; 250 g ai/ha, Flood, 13 days, 0 to 100 scale (0 no effect, 100 complete control); read-out: Plant response rating, Rice. The method in brief:
(§2)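 Two-leaf plants, 3 cm flood, in-water application, 13-day greenhouse hold, visual 0–100 rating vs untreated checks.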

The test system of test [6] is ducksalad. As to the kind of experiment: Test B flooded paddy test. Type of test: in vivo, Heteranthera limosa. Particulars: Heteranthera limosa, 312 h, 250 g ai/ha, Flood, 13 days, 0 to 100 scale (0 no effect, 100 complete control); read-out: Plant response rating, Ducksalad. The method in brief: as §2
Test [7] concerns foxtail, giant. Kind of test: Test A preemergence. Type of test: in vivo, Setaria faberi. To be noted: Setaria faberi, pre-emergence, 240 h, read-out: Plant response rating, Foxtail, Giant; for pest or weed control at 125 g/ha: 125 g ai/ha; for pest or weed control at 500 g/ha: 500 g ai/ha. The method in brief:
as §1

Test [8] concerns blackgrass. Kind of test: Test A postemergence. The test is classed as in vivo, Alopecurus myosuroides. To be noted: Alopecurus myosuroides, post-emergence, 240 h; for pest or weed control at 125 g/ha: 125 g ai/ha; for pest or weed control at 500 g/ha: 500 g ai/ha. The method in brief: as §1
In test [9] the test system is kochia. Kind of test: Test A preemergence. To be noted: Bassia scoparia, pre-emergence, 240 h, read-out: Plant response rating, Kochia; for pest or weed control at 125 g/ha: 125 g ai/ha; for pest or weed control at 500 g/ha: 500 g ai/ha. The test is classed as in vivo, Bassia scoparia. Put shortly:
as §1

In test [10] the test system is corn. As to the kind of experiment: Test A postemergence. Type of test: in vivo, Zea mays. To be noted: Zea mays, post-emergence, 240 h, postemergence, 10 days, 0 to 100 scale (0 no effect, 100 complete control); for Corn plant response rating (crop injury, 0 = no effect, 100 = complete kill) at 500 g/ha: 500 g ai/ha; for plant injury at 125 g/ha: read-out: Corn plant response rating. The method in brief: as §1

The subject of test [11] is horseweed. Kind of test: Test A postemergence. The test is classed as in vivo, Erigeron canadensis. To be noted: Erigeron canadensis, post-emergence, 240 h, postemergence, 10 days, 0 to 100 scale (0 no effect, 100 complete control); for pest or weed control at 125 g/ha: 125 g ai/ha; for pest or weed control at 500 g/ha: 500 g ai/ha. Put shortly: as §1
The subject of test [12] is barnyardgrass. Kind of test: Test B flooded paddy test. The test is classed as in vivo, Echinochloa crus-galli. Particulars: Echinochloa crus-galli, 312 h, 250 g ai/ha, Flood, 13 days, 0 to 100 scale (0 no effect, 100 complete control); read-out: Plant response rating, Barnyardgrass. Put shortly:
as §2

The subject of test [13] is blackgrass. Kind of test: Test A preemergence. Particulars: Alopecurus myosuroides, pre-emergence, 240 h, read-out: Plant response rating, Blackgrass. Type of test: in vivo, Alopecurus myosuroides. Put shortly:
as §1

Test [14] concerns oat, wild. Kind of test: Test A preemergence. Type of test: in vivo, Avena fatua. Particulars: Avena fatua, pre-emergence, 240 h, read-out: Plant response rating, Oat, Wild. Put shortly: as §1
Setting [15] is: visual injury after 10 days, 0 to 100 scale, 0 is no effect, 100 is complete control.
[16] abbreviates: 0 to 100 scale (0 no effect, 100 complete control), 10 days.
Where [17] appears, read: visual injury, read-out: Plant response rating, Kochia.
[18] abbreviates: postemergence, 10 days, visual injury, 0 to 100 scale (0 no effect, 100 complete control), read-out: Plant response rating, Blackgrass.
Setting [19] is: visual injury, read-out: Plant response rating, Horseweed.
Where [20] appears, read: 125 g ai/ha, visual injury after 10 days, 0 to 100 scale, 0 is no effect, 100 is complete control.
[21] abbreviates: 500 g ai/ha, 0 to 100 scale (0 no effect, 100 complete control), 10 days.
Where [22] appears, read: read-out: Kochia plant response rating.
Setting [23] is: postemergence, 10 days, 0 to 100 scale (0 no effect, 100 complete control), read-out: Blackgrass plant response rating.
Where [24] appears, read: read-out: Horseweed plant response rating.

As for `Cc1ccc(-n2cnc(C(C)(C)C)n2)cc1C(=O)N1C[C@H](C)Oc2c(Cl)cccc21` [Compound 76, [(2S)-8-Chloro-2,3-dihydro-2-methyl-4H-1,4-benzoxazin-4-yl][5-[3-(1,1-dimethylethyl)-1H-1,2,4-triazol-1-yl]-2-methylphenyl]methanone], the pest or weed control at 125 g/ha came to 100% in [1] (setting [15]); 90% in test [2] (setting [17]); 100% in test [4] (setting [15]); 90% in [7] (setting [15]); 70% in test [8] (setting [18]); 70% in test [9] (setting [15]). In addition, the pest or weed control at 125 g/ha in test [11] (setting [19]) was found to be 70%. Moreover, the pest or weed control at 500 g/ha in test [1] (setting [16]) was determined as 100%; in test [2] (setting [17]), 90%; in test [3] it was 100%; in [4] (setting [16]), 100%; in test [7] (setting [16]), 100%; in test [8] (Postemergence, 0 to 100 scale, read-out: Plant response rating, Blackgrass), 70%. The pest or weed control at 500 g/ha in test [9] (setting [16]) is 100%; in test [11] (setting [19]), 80%. Also, the plant injury at 250 g/ha in [5] is 0%. Moreover, the figures for the pest or weed control at 250 g/ha in test [6] and in test [12] were 20% and 25%, respectively. In addition, the Corn plant response rating (crop injury, 0 = no effect, 100 = complete kill) at 125 g/ha in test [10] (125 g ai/ha, visual injury) stood at 60%. For the same compound, the Corn plant response rating (crop injury, 0 = no effect, 100 = complete kill) at 500 g/ha in test [10] (visual injury) worked out at 60%.
`Cc1cccc2c1O[C@@H](C)CN2C(=O)c1cccc(-n2cnc(C3COC3)n2)c1` [Compound 109, [(2S)-2,3-Dihydro-2,8-dimethyl-4H-1,4-benzoxazin-4-yl][3-[3-(3-oxetanyl)-1H-1,2,4-triazol-1-yl]phenyl]methanone]: the pest or weed control at 125 g/ha was 80% in test [13] (setting [20]); 70% in [2] (setting [22]); 60% in test [3]; 80% in test [4] (setting [15]); 50% in test [14] (setting [20]); 100% in test [7] (setting [15]). For the same compound, the pest or weed control at 125 g/ha stood at 70% in test [8] (setting [23]), 60% in [9] (setting [15]) and 10% in test [11] (setting [24]). Besides, the pest or weed control at 500 g/ha worked out at 90% in [13] (setting [21]); 90% in test [2] (setting [17]); 60% in test [3]; 100% in test [4] (setting [16]); 90% in test [14] (setting [21]); 100% in [7] (setting [16]). Further, the pest or weed control at 500 g/ha in [8] (setting [18]) was found to be 90%; in test [9] (setting [16]), 90%; in test [11] (setting [19]), 30%. Moreover, the plant injury at 250 g/ha in [5] stood at 0%. For the same compound, the pest or weed control at 250 g/ha in [6] came out at 75%; in test [12], 40%. For the same compound, in test [10] (125 g ai/ha), the plant injury at 125 g/ha is 60%. In [10] (visual injury), the Corn plant response rating (crop injury, 0 = no effect, 100 = complete kill) at 500 g/ha was 90%.
Take `Cc1ccc(-n2ncnc2C)cc1C(=O)N1C[C@H](C)Oc2c(Cl)cccc21` (single isomer, unassigned) [Compound 126]: the pest or weed control at 125 g/ha worked out at 20% in [1] (setting [15]); 10% in [2] (setting [22]); 0% in [3]; 40% in [4] (setting [15]); 60% in test [7] (setting [15]); 0% in [8] (setting [23]). The pest or weed control at 125 g/ha in [9] (setting [15]) and in [11] (setting [24]) was 0% each time. In addition, the pest or weed control at 500 g/ha was 90% in test [1] (setting [15]); 20% in test [2] (setting [17]); 30% in test [3]; 70% in [4] (setting [15]); 100% in test [7] (setting [15]); 40% in [8] (setting [18]). Further, the pest or weed control at 500 g/ha was 0% in test [9] (setting [15]) and 40% in [11] (setting [19]). Moreover, in [5], the plant injury at 250 g/ha came out at 0%. Moreover, the pest or weed control at 250 g/ha in test [6] and in test [12] was 0% throughout. Moreover, in [10] (125 g ai/ha), the plant injury at 125 g/ha came out at 0%. The compound also yielded a Corn plant response rating (crop injury, 0 = no effect, 100 = complete kill) at 500 g/ha in test [10] (visual injury) of 10%.
